pKd: −log10 of the molar value. Where “and” joins values, the source holds several entries; their conditions need not be identical. Equal entries are not always repeated. No end group written: not given here.
tested on: recombinant human or murine heat shock protein 70 (hsp70); test: not given; type: binding; details: not given

With “SIINFEKLgsgNLLRLTGW (SIINFEKLGSGNLLRLTGW; not fully specified; printed as SIINFEKLgsgNLLRLTGW) [OVA + NLLRLTGW]” the “increase in affinity for HSP70 (lower dissociation constant) over SIINFEKLGSGHWDFAWPW” value was 15 fold.

same assay, conditions: pH 8; read-out: Kd, peptide (epitope), heat shock protein-binding domain: None

Compared with “YMLDLQPETT [HPV16 E7 (11-20), reference compound]”, “YMDGTMSQV [Tyrosinase (“YMD”), reference compound]” is 0.35 log units lower in pKd: 4.04 for the first, 3.69 for the second.

First: ALFDIESKV [PSMA P2, reference compound]
Second: IMDQVPFSV [Gp100 (“IMD”), reference compound]
The pKd of the first is 1.25 log units higher: 3.84 for the first, 2.59 for the second.

SIINFEKL [OVA, reference compound] and “TLGIVCPI [HPV16 E7 (86-93), reference compound]” are within 0.2 log units of each other in pKd: 3.55 for the first, 3.73 for the second.

same assay, conditions: read-out: Epitope alone: Affinity for hsp70

Compared with ALKHRAYEL [reference compound], SLFNTVATL [reference compound] is 0.45 log units higher in pKd: 4.01 for the first, 4.46 for the second. The second binds more tightly here.

VIYQYMDDL [reference compound] and VLDVGDAYFSV [reference compound] are within 0.2 log units of each other in pKd: 4.04 for the first, 3.96 for the second.

Compared with “YMDGTMSQV [Tyrosinase (“YMD”), reference compound]”, KASEKIFYV [reference compound] is 0.56 log units higher in pKd: 3.68 for the first, 4.24 for the second. The second binds more tightly here.

SVYDFFVWL [reference compound] and AFHHVAREL [reference compound] are within 0.2 log units of each other in pKd: 4.09 for the first, 4.08 for the second.

Going from “IMDQVPFSV [Gp100 (“IMD”), reference compound]” to GLYDGMEHL [reference compound], the pKd rises from 2.59 to 4.32 (1.73 log units).

YLEPGPVTV [reference compound] and ILKEPVHGV [reference compound] are within 0.2 log units of each other in pKd: 4.15 for the first, 4.08 for the second.

AIIRILQQL [reference compound] gave a pKd of 4.03.

same assay, conditions: read-out: Hybrid antigen comprising epitope: Affinity for hsp70

Going from “IMDQVPFSVgsgNLLRLTGW (IMDQVPFSVGSGNLLRLTGW; not fully specified; printed as IMDQVPFSVgsgNLLRLTGW)” to VIYQYMDDLGSGNLLRLTGW, the pKd falls from 6.05 to 5.77 (0.28 log units). The first binds more tightly here.

YLEPGPVTVGSGNLLRLTGW and VLDVGDAYFSVGSGNLLRLTGW are the same in pKd: 5.70 for the first, 5.70 for the second.

Going from SLFNTVATLGSGNLLRLTGW to GLYDGMEHLGSGNLLRLTGW, the pKd rises from 5.72 to 5.96 (0.24 log units).

First: SVYDFFVWLGSGNLLRLTGW
Second: SLYNTVATLGSGNLLRLTGW
The pKd of the first is 0.20 log units lower: 5.54 for the first, 5.74 for the second.

Going from AIIRILQQLGSGNLLRLTGW to AFHHVARELGSGNLLRLTGW, the pKd falls from 6.22 to 5.68 (0.54 log units).

NLLRLTGWGSGSHNFEKL and SLLMWITQVGSGNLLRLTGW are within 0.2 log units of each other in pKd: 5.80 for the first, 5.66 for the second.

YMDGTMSQVgsgNLLRLTGW and KASEKIFYVGSGNLLRLTGW are within 0.2 log units of each other in pKd: 5.74 for the first, 5.85 for the second.

NLLRLTGWGSGRGYVYQGL and ILKEPVHGVGSGNLLRLTGW are within 0.2 log units of each other in pKd: 5.85 for the first, 5.92 for the second.

Substance ALKHRAYELGSGNLLRLTGW has a pKd of 5.96.

same assay, conditions: read-out: Kd, heat shock protein-binding domain: FYQLALTW; pH 8; read-out: Kd, heat shock protein-binding domain: […]

Going from “SIINFEKLgsgFYQLALTW (SIINFEKLGSGFYQLALTW; not fully specified; printed as SIINFEKLgsgFYQLALTW) [OVA + FYQLALTW]” to FYQLALTW, the pKd falls from 5.84 to 5.23 (0.61 log units). The first binds more tightly here.

same assay, conditions: read-out: Kd, heat shock protein-binding domain: HWDFAWPW; pH 8; read-out: Kd, heat shock protein-binding domain: […]

First: IMDQVPFSVgsgHWDFAWPW (IMDQVPFSVGSGHWDFAWPW; not fully specified; printed as IMDQVPFSVgsgHWDFAWPW)
Second: HWDFAWPWgsgYMDGTMSQV (HWDFAWPWGSGYMDGTMSQV; not fully specified; printed as HWDFAWPWgsgYMDGTMSQV)
The pKd of the first is 0.73 log units lower: 3.81 for the first, 4.54 for the second.

“ALFDIESKVgsgHWDFAWPW (ALFDIESKVGSGHWDFAWPW; not fully specified; printed as ALFDIESKVgsgHWDFAWPW) [PSMA P2 + HWDFAWPW]” and “YMLDLQPETTgsgHWDFAWPW (YMLDLQPETTGSGHWDFAWPW) [HPV16 E7 (11-20) + HWDFAWPW]” are within 0.2 log units of each other in pKd: 4.66 for the first, 4.57 for the second.

Compared with “TLGIVCPIgsgHWDFAWPW (TLGIVCPIGSGHWDFAWPW) [HPV16 E7 (86-93) + HWDFAWPW]”, “HWDFAWPWgsgSIINFEKL (HWDFAWPWGSGSIINFEKL; not fully specified; printed as HWDFAWPWgsgSIINFEKL)” is 0.33 log units higher in pKd: 5.04 for the first, 5.37 for the second. The second binds more tightly here.

First: YMDGTMSQVgsgHWDFAWPW (YMDGTMSQVGSGHWDFAWPW)
Second: HWDFAWPW
The pKd of the first is 0.70 log units higher: 4.62 for the first, 3.92 for the second. The first binds more tightly here.

With “SIINFEKLgsgHWDFAWPW (SIINFEKLGSGHWDFAWPW; not fully specified; printed as SIINFEKLgsgHWDFAWPW) [OVA + HWDFAWPW]” the pKd was 4.40.

same assay, conditions: read-out: Kd, heat shock protein-binding domain: NLLRLTGW; pH 8; read-out: Kd, heat shock protein-binding domain: […]

First: IMDQVPFSVgsgNLLRLTGW (IMDQVPFSVGSGNLLRLTGW; not fully specified; printed as IMDQVPFSVgsgNLLRLTGW)
Second: PSMA P2 + NLLRLTGW
The pKd of the first is 0.38 log units lower: 5.51 for the first, 5.89 for the second. The second binds more tightly here.

Going from NLLRLTGW to “TLGIVCPIgsgNLLRLTGW [HPV16 E7 (86-93) + NLLRLTGW]”, the pKd falls from 5.73 to 5.28 (0.45 log units).

Compared with YMDGTMSQVgsgNLLRLTGW, “SIINFEKLgsgNLLRLTGW (SIINFEKLGSGNLLRLTGW; not fully specified; printed as SIINFEKLgsgNLLRLTGW) [OVA + NLLRLTGW]” is 0.34 log units higher in pKd: 5.58 for the first, 5.92 for the second. The second binds more tightly here.

same assay, conditions: read-out: Kd, heat shock protein-binding domain: RKLFFNLRW; pH 8; read-out: Kd, heat shock protein-binding domain: […]

First: RKLFFNLRW
Second: SIINFEKLgsgRKLFFNLRW (SIINFEKLGSGRKLFFNLRW; not fully specified; printed as SIINFEKLgsgRKLFFNLRW) [OVA + RKLFFNLRW]
The pKd of the first is 0.33 log units lower: 4.82 for the first, 5.15 for the second.

tested on: γ-interferon-secreting CD8+ cells; test: γ-interferon-secreting CD8+ cells after immunization of mice and in vitro restimulation with […]; type: in vivo; details: mice immunized day 0, splenocytes day 7, restimulated 5 days; FIG. 1
Experimental: Non-covalent complexes of recombinant human heat shock protein 70 and hybrid antigens of the invention were evaluated for biological activity in vivo. To evaluate the induction of an antigen-specific immune response, mice were immunized on day 0 with one of the following: (1) 100 μg human hsp70; (2) a noncovalent complex of 100 μg hsp70 and 15 μg […] (SEQ ID NO:357) (OVA peptide); (3) a noncovalent complex of 100 μg hsp70 and 15 μg […] (SEQ ID NO:368) (N-terminal OVA peptide, C-terminal heat shock protein binding domain […] (SEQ ID NO:358), GSG linker in between); and (4) a noncovalent complex of […] and 15 μg […] (SEQ ID NO:367) (N-terminal OVA peptide, C-terminal heat shock protein binding domain […] (SEQ ID NO:359), GSG linker in between).
On day 7, splenocytes were obtained from the immunized animals and were restimulated with peptide ([…]) (SEQ ID NO:357) in vitro for 5 days, after which the percent of γ-interferon-secreting CD8+ cells was determined.

“Hsp70: recombinant human heat shock protein 70” was tested, and the “immune response: percent of γ-interferon-secreting CD8+ cells” value was “low level of response”.

tested on: CD8+ T cells; test: not given; design: species or system mice; details: mouse, in vivo

For “Hsp70: recombinant human heat shock protein 70”, the “Number of Spots, Con A Positive control” value was 965.

In the case of “Hsp70: recombinant human heat shock protein 70”, the “Number of Spots, Con A positive control” value was 834.

With “Hsp70: recombinant human heat shock protein 70” the “Number of Spots, Medium control” value was 1.50 and 1.00.

“Hsp70: recombinant human heat shock protein 70” was tested, and the “Number of Spots, SIINFEKL” value was 0.33.

With “Hsp70: recombinant human heat shock protein 70” the “Number of spots, Con A positive control” value was 552 spots per 300,000 CD8 T cells.

In the case of “Hsp70: recombinant human heat shock protein 70”, the “Number of spots, Medium control” value was 0.00 spots per 300,000 CD8 T cells.

In the case of “Hsp70: recombinant human heat shock protein 70”, the “Number of spots, SIINFEKL” value was 0.67 spots per 300,000 CD8 T cells.

“Hsp70: recombinant human heat shock protein 70” was tested, and the “Number of spots, Unpulsed control” value was 0.50 spots per 300,000 CD8 T cells.

For “Hsp70: recombinant human heat shock protein 70”, the “Number of spots, VSV control” value was 1.00 spots per 300,000 CD8 T cells.

same assay, conditions: mouse, in vivo, sc

In the case of “Hsp70: recombinant human heat shock protein 70”, the “Number of Spots, SIINFEKL” value was 0.00.

tested on: SIINFEKL-pulsed target cells; test: 51Cr-release CTL assay after immunization of mice; type: in vivo; details: Example 14; SIINFEKL-pulsed target cells
Experimental: Mice were immunized s.c. at the base of the tail with the complexes listed above—[…] (SEQ ID NO:359) alone was added at a five-fold molar excess of the […] (SEQ ID NO:358) dose. 7 d later, spleens were harvested and stimulated in vitro with […] (SEQ ID NO:357) peptide. Values within bars represent the amount of epitope delivered. 100:1 E:T ratio shown.
In the same experiment, a ^51Cr-release assay as described above was done using […]-pulsed target cells. At an effector to target cell ratio of 200:1, the percent killing results obtained are shown in the far right column of the following table.

With “Hsp70: recombinant human heat shock protein 70” the “CTL assay: % killing at 200:1 E/T” value was 0%.

same assay, conditions: Example 16; SIINFEKL-pulsed target cells

For “Hsp70: recombinant human heat shock protein 70”, the “CTL assay: % killing at 200:1 E/T” value was 8.45%.

same assay, conditions: binding domain peptide alone added at five-fold molar excess

With NLLRLTGW the “effect on induction of an immune response by HSP70: SIINFEKLGSGHWDFAWPW mixture” value was “prevent induction of an immune response”.
